Test results published in patent US8557816B2, “Aurora kinase modulators and method of use” (Amgen Inc., priority 2007, dated 2013).

How the values were obtained:
AuroraA-TPX2 = biological target: T1, AuroraA-TPX2 (Homo sapiens, UniProt O14965); test: AuroraA-TPX2 Homogeneous Time Resolved Fluorescent (HTRF) kinase assay; format: biochemical; conditions: average; read-out: AurA_IC50_IP (uM Avg)
T1 construct: 20 μL of AuroraA-TPX2 KD GST for a final volume of about 41 μL; GST
T1 sequence (O14965 133-383 limits assumed): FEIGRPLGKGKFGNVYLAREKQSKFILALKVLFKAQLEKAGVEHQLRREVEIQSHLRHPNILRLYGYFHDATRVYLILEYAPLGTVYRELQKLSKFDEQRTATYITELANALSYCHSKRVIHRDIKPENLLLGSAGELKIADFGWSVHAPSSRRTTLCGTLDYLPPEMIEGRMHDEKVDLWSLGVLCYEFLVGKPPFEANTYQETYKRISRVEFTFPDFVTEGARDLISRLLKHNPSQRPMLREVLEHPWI
T1 sequence (Q9ULW0 1-43 partner limits assumed): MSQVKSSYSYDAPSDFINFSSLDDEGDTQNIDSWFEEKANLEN
Experimental: AuroraA-TPX2-Homogeneous Time Resolved Fluorescent (HTRF) Kinase Assay:
The Aurora-A HTRF assay begins with Aurora-A in the presence of ATP phosphorylating the biotinylated peptide PLK. The reaction incubates for about 120 min. Detection reagents are added to quench the reaction. These agents stop the reaction by diluting out the enzyme and chelating the metals due to the presence of EDTA. After addition, the assay is incubated overnight to allow the detection reagents to equilibrate.
The AuroraA HTRF assay comprises 1 μL of compound in 100% DMSO, 20 μL of ATP and biotinylated PLK, and 20 μL of AuroraA-TPX2 KD GST for a final volume of about 41 μL. The final concentration of PLK is about 1 μM. […] Buffer conditions are as follows: 60 mM HEPES pH 7.5, 25 mM NaCl, 10 mM MgCl, 2 mM DTT, 0.05% BSA.
(§1) The assay is quenched and stopped with 160 μL of detection reagent. Detection reagents are as follows: Buffer made of 50 mM Tris, pH 7.5, 100 mM NaCl, 3 mM EDTA, 0.05% BSA, 0.1% Tween20. Added to this buffer prior to reading is Steptavidin allophycocyanin (SA-APC) at a final conc in the assay of 0.0005 mg/mL, and europilated anti-phosphoPLK Ab (Eu-anti-PLK) at a final conc of 0.02 nM.
The assay plate is read in either a Discovery or a RubyStar. The eu-anti-PLK is excited at 320 nm and emits at 615 nm to excite the SA-APC which in turn emits at 655 nm.

AuroraB = biological target: T2, AuroraB (Homo sapiens, UniProt Q96GD4); test: AuroraB Homogeneous Time Resolved Fluorescent (HTRF) kinase assay; format: biochemical; conditions: average; read-out: AurB_IC50_IP (uM Avg)
T2 construct: 20 μL of AuroraB FL H is for a final volume of 41 μL; His
T2 sequence (Q96GD4 whole entry): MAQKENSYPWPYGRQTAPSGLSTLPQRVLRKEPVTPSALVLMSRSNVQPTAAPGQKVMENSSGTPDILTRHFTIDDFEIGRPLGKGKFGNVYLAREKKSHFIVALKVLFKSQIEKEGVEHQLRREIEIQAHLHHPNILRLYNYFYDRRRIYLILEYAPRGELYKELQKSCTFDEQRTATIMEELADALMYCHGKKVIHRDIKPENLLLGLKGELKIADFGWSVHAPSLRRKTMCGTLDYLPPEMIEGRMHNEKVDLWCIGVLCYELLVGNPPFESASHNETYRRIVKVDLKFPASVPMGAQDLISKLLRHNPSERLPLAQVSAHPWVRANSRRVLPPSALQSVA
Experimental: AuroraB-Homogeneous Time Resolved Fluorescent (HTRF) Kinase Assay:
The AuroraB HTRF assay begins with AuroraB in the presence of ATP phosphorylating the biotinylated peptide Histone H3. The reaction incubates for about 90 min. the reaction is quenched by addition of detection reagents, which stop the reaction by diluting out the enzyme and chelating the metals due to the presence of EDTA. After addition, the assay is incubated for about 60 min to allow detection reagents to equilibrate.
The AuroraB HTRF assay comprises 1 μL of compound in 100% DMSO, 20 μL of ATP and biotinylated Histone H3, and 20 μL of AuroraB FL H is for a final volume of 41 μL. The final concentration of Histone H3 is 0.1 μM. […] Buffer conditions are as follows: 50 mM HEPES pH 7.5, 5 mM NaCl, 0.5 mM MgCl, 0.5 mM MnCl, 2 mM DTT, 0.05% BSA.
as §1, with “0.001” for “0.0005”, “anti-phosphoHistoneH3” for “anti-phosphoPLK”, “(Eu-anti-HisH3)” for “(Eu-anti-PLK)”, “0.064” for “0.02”
The assay plate is read in either a Discovery or a RubyStar. The eu-anti-HisH3 is excited at 320 nm and emits at 615 nm to excite the SA-APC which in turn emits at 655 nm.

## N#Cc1cnc2c(Oc3ccc(Nc4nnc(-c5ccccc5)c5ccccc45)cc3)ccnc2c1 [Example 44, 8-(4-(4-phenylphthalazin-1-ylamino)phenoxy)-1,5-naphthyridine-3-carbonitrile]
AuroraA-TPX2
  IC50: 0.332 µM
AuroraB
  IC50: 0.015 µM

## Cn1cc(-c2ccc3nccc(Oc4ccc(Nc5nnc(-c6ccccc6)c6ccccc56)cc4)c3c2)cn1 [Example 45, N-(4-(6-(1-Methyl-1H-pyrazol-4-yl)quinolin-4-yloxy)phenyl)-4-phenylphthalazin-1-amine]
AuroraA-TPX2
  IC50: 0.079 µM
AuroraB
  IC50: 0.03 µM

## NC(=O)c1cc2nccc(Oc3ccc(Nc4nnc(-c5ccccc5)c5ccccc45)cc3)c2s1 [Example 46, 7-(4-(4-phenylphthalazin-1-ylamino)phenoxy)thieno[3,2-b]pyridine-2-carboxamide]
AuroraA-TPX2
  IC50: 0.015 µM
AuroraB
  IC50: 0.001 µM

## COc1ccc(F)cc1-c1nnc(Nc2ccc(Oc3ccnc4cc(C(N)=O)ccc34)cc2)c2ccccc12 [Example 47, 4-(4-(4-(5-fluoro-2-methoxyphenyl)phthalazin-1-ylamino)phenoxy)quinoline-7-carboxamide]
AuroraA-TPX2
  IC50: 5 µM
AuroraB
  IC50: 0.138 µM

## FC(F)Oc1cnc2c(Sc3ccc(Nc4nnc(-c5ccccc5)c5ccccc45)cc3)ccnc2c1 [Example 387, N-(4-(7-(difluoromethoxy)-1,5-naphthyridin-4-ylthio)phenyl)-4-phenylphthalazin-1-amine]
AuroraA-TPX2
  IC50: 0.135 µM
AuroraB
  IC50: 0.048 µM

## Oc1ccc2nccc(Sc3ccc(Nc4nnc(-c5ccc(Cl)cc5)c5ccccc45)cc3)c2c1 [Example 388, 4-(4-(4-(4-Chlorophenyl)phthalazin-1-ylamino)phenylthio)quinolin-6-ol]
AuroraA-TPX2
  IC50: 0.02 µM
AuroraB
  IC50: 0.003 µM

## COCCOCCOc1ccc2nccc(Sc3ccc(Nc4nnc(-c5ccc(Cl)cc5)c5ccccc45)cc3)c2c1 [Example 389, 4-(4-Chlorophenyl)-N-(4-(6-(2-(2-methoxyethoxy)ethoxy)quinolin-4-ylthio)phenyl)phthalazin-1-amine]
AuroraA-TPX2
  IC50: 0.021 µM
AuroraB
  IC50: 0.022 µM

## CS(=O)(=O)CCOc1ccc2nccc(Sc3ccc(Nc4nnc(-c5ccc(Cl)cc5)c5ccccc45)cc3)c2c1 [Example 390, 4-(4-Chlorophenyl)-N-(4-(6-(2-(methylsulfonyl)ethoxy)quinolin-4-ylthio)phenyl)phthalazin-1-amine]
AuroraA-TPX2
  IC50: > 125 µM
AuroraB
  IC50: > 125 µM

## Clc1ccc(-c2nnc(Nc3ccc(Sc4ccnc5ccoc45)cc3)c3ccccc23)nc1 [Example 391, 4-(5-Chloropyridin-2-yl)-N-(4-(furo[3,2-b]pyridin-7-ylthio)phenyl)phthalazin-1-amine]
AuroraA-TPX2
  IC50: 0.601 µM
AuroraB
  IC50: 0.018 µM

## COc1cc2nccc(Oc3ccc(Nc4nnc(-c5ccccc5)c5ccccc45)cc3)c2cc1C#N [Example 392, 7-Methoxy-4-(4-(4-phenylphthalazin-1-ylamino)phenoxy)quinoline-6-carbonitrile]
AuroraA-TPX2
  IC50: 0.159 µM
AuroraB
  IC50: 0.26 µM

## COCCOc1cc2nccc(Oc3ccc(Nc4nnc(-c5ccccc5)c5ccccc45)cc3)c2cc1OC [Example 393, N-(4-(6-Methoxy-7-(2-methoxyethoxy)quinolin-4-yloxy)phenyl)-4-phenylphthalazin-1-amine]
AuroraA-TPX2
  IC50: 0.013 µM
AuroraB
  IC50: 0.017 µM

## COc1cnc2c(Oc3ccc(Nc4nnc(-c5ccc(Cl)c(OCCS(C)(=O)=O)c5)c5ccccc45)cc3)ccnc2c1 [Example 394, 4-(4-Chloro-3-(2-(methylsulfonyl)ethoxy)phenyl)-N-(4-(7-methoxy-1,5-naphthyridin-4-yloxy)phenyl)phthalazin-1-amine]
AuroraA-TPX2
  IC50: 0.015 µM
AuroraB
  IC50: 0.009 µM

## COCCOc1cc(-c2nnc(Nc3ccc(Oc4ccnc5cc(OC)cnc45)cc3)c3ccccc23)ccc1C [Example 395, N-(4-(7-Methoxy-1,5-naphthyridin-4-yloxy)phenyl)-4-(3-(2-methoxyethoxy)-4-methylphenyl)phthalazin-1-amine]
AuroraA-TPX2
  IC50: 0.047 µM
AuroraB
  IC50: 0.012 µM

## COc1cnc2c(Sc3ccc(Nc4nnc(-c5ccn(C)c(=O)c5)c5ccccc45)cc3)ccnc2c1 [Example 396, 4-(4-(4-(7-Methoxy-1,5-naphthyridin-4-ylthio)phenylamino)phthalazin-1-yl)-1-methylpyridin-2(1H)-one]
AuroraA-TPX2
  IC50: 0.05 µM
AuroraB
  IC50: > 125 µM

## Cc1ccc(-c2nnc(Nc3ccc(Sc4ccnc5ccoc45)cc3)c3ccccc23)cc1F [Example 398, 4-(3-Fluoro-4-methylphenyl)-N-(4-(furo[3,2-b]pyridin-7-ylthio)phenyl)phthalazin-1-amine]
AuroraA-TPX2
  IC50: 1.73 µM
AuroraB
  IC50: 0.059 µM

## Nc1ccc2nccc(Sc3ccc(Nc4nnc(-c5ccccc5)c5ccccc45)cc3)c2c1 [Example 399, N-(4-(6-Aminoquinolin-4-ylthio)phenyl)-4-phenylphthalazin-1-amine]
AuroraA-TPX2
  IC50: 0.286 µM
AuroraB
  IC50: 0.025 µM

## COc1cnc2c(Sc3ccc(Nc4nnc(C5=CCNCC5)c5ccccc45)cc3)ccnc2c1 [Example 401, N-(4-(7-Methoxy-1,5-naphthyridin-4-ylthio)phenyl)-4-(1,2,3,6-tetrahydropyridin-4-yl)phthalazin-1-amine]
AuroraA-TPX2
  IC50: 0.847 µM
AuroraB
  IC50: 0.052 µM

## COc1cnc2c(Sc3ccc(Nc4nnc(OC)c5ccccc45)cc3)ccnc2c1 [Example 402, 4-Methoxy-N-(4-(7-methoxy-1,5-naphthyridin-4-ylthio)phenyl)phthalazin-1-amine]
AuroraA-TPX2
  IC50: 0.167 µM
AuroraB
  IC50: 0.015 µM

## COc1cnc2c(Sc3ccc(Nc4nnc(OCCC5CCCCN5)c5ccccc45)cc3)ccnc2c1 (centres unmarked) [Example 403, N-(4-(7-Methoxy-1,5-naphthyridin-4-ylthio)phenyl)-4-(2-(piperidin-2-yl)ethoxy)phthalazin-1-amine]
AuroraA-TPX2
  IC50: 0.239 µM
AuroraB
  IC50: 0.005 µM

## COc1cnc2c(Sc3ccc(Nc4nnc(C#N)c5ccccc45)cc3)ccnc2c1 [Example 404, 4-(4-(7-Methoxy-1,5-naphthyridin-4-ylthio)phenylamino)phthalazine-1-carbonitrile]
AuroraA-TPX2
  IC50: 0.447 µM
AuroraB
  IC50: 0.009 µM

## O=c1ccc2nccc(Sc3ccc(Nc4nnc(-c5ccc(Cl)cn5)c5ccccc45)cc3)c2[nH]1 [Example 405, 8-(4-(4-(5-Chloropyridin-2-yl)phthalazin-1-ylamino)phenylthio)-1,5-naphthyridin-2(1H)-one]
AuroraA-TPX2
  IC50: 0.042 µM
AuroraB
  IC50: 0.007 µM

## COc1cc2nccc(Sc3ccc(Nc4nnc(-c5ccc(Cl)cc5)c5ccccc45)cc3)c2[nH]c1=O [Example 406, 8-(4-(4-(4-Chlorophenyl)phthalazin-1-ylamino)phenylthio)-3-methoxy-1,5-naphthyridin-2(1H)-one]
AuroraA-TPX2
  IC50: 0.034 µM
AuroraB
  IC50: 0.186 µM

## COc1cnc2c(Oc3ccc(Nc4nnc(-c5cc(CO)cs5)c5ccccc45)cc3)ccnc2c1 [Example 407, (5-(4-(4-(7-Methoxy-1,5-naphthyridin-4-yloxy)phenylamino)phthalazin-1-yl)thiophen-3-yl)methanol]
AuroraA-TPX2
  IC50: 0.016 µM
AuroraB
  IC50: 0.004 µM

## COc1cnc2c(Oc3ccc(Nc4nnc(-c5cc(CF)cs5)c5ccccc45)cc3)ccnc2c1 [Example 408, 4-(4-(Fluoromethyl)thiophen-2-yl)-N-(4-(7-methoxy-1,5-naphthyridin-4-yloxy)phenyl)phthalazin-1-amine]
AuroraA-TPX2
  IC50: 0.024 µM
AuroraB
  IC50: 0.009 µM

## Oc1cnc2c(Oc3ccc(Nc4nnc(-c5ccc(Cl)cc5)c5ccccc45)cc3)ccnc2c1 [Example 409, 8-(4-(4-(4-Chlorophenyl)phthalazin-1-ylamino)phenoxy)-1,5-naphthyridin-3-ol]
AuroraA-TPX2
  IC50: 0.02 µM
AuroraB
  IC50: 0.005 µM
